Series [1] can be described thus: Solubility of deutetrabenazine versus pH. Type of series: physicochemical. The procedure:
(§1) Deutetrabenazine is permeable through the small intestinal (SI) segments in a rat perfusion model.
The dosage forms disclosed herein were developed to achieve similar pharmacokinetics (PK) of 2 doses of AUSTEDO® 12 mg tablets with a single daily dose (QD).

Series [2] deals with small intestinal (SI) segments. Type of series: in vivo. Particulars: rat.
From the text: as §1

Details of series [3]: species or system human. As to conditions: in vivo.
The conditions of series [4]: in vivo; cited from earlier work.
Series [5] can be described thus: Particle size distribution by laser diffractometry (Mastersizer 3000). Type of series: physicochemical. Particulars: drug substance, Table 1. The procedure: Particle size distribution is determined by means of laser diffractometry. More specifically, the particle size distribution was determined using a Mastersizer 3000 from Malvern Instruments. The particle size determination may be carried out as a wet or dry measurement depending on the sample.
The deutetrabenazine particle size distributions following manufacture (untreated), micronization (air jet mill) and nano-milling (Dyno bead mill) are shown in Table 1.
Using a Mastersizer 3000 (Malvern Instruments), the following settings were used for dry measurement of the micro-milled and unmilled deutetrabenazine:
Using a Mastersizer 3000 (Malvern Instruments), the following settings were used for wet measurement of the nano-milled deutetrabenazine:
Deutetrabenazine particle size was reduced to a nanometer size (<1.0 micron) using a wet Dyno milling process in several passes. The milled deutetrabenazine was dispersed in excipient as above. The dispersion was passed through a 0.3 liter agitator bead mill containing 950 g of very high density zirconium oxide beads. The dispersion was passed through the agitator mill for up to 2 hrs to obtain particle size below 1.0 micron.

The solubility is the concentration that dissolves in the medium under given conditions. Read a high solubility as much dissolved substance.

For `[2H]C([2H])([2H])Oc1cc2c(cc1OC([2H])([2H])[2H])[C@H]1CC(=O)[C@H](CC(C)C)CN1CC2` [Deutetrabenazine, (RR,SS)-1,3,4,6,7,11b-hexahydro-9,10-di(methoxy-D3)-3-(2-methylpropyl)-2H-benzo[a]quinolizin-2-one], the solubility entry in series [1] (acidic environment (pH<4)) is “relatively good solubility”. Also, the solubility in series [1] (pH ≥4) was < 2300 µg/mL. Also, the “permeability through small intestinal (SI) segments” value in series [2] is given as “permeable”. Besides, in series [2] (in vivo), the ileum absorption entry is recorded as “about 0.0006 cm/sec” and the “levels of absorption in the lower GI, order of segments” value is “Jejunum<Mid-small intestine<Colon<Ileum”. Besides, the “radioactive dose recovered in urine” value in series [3] is listed as “approximately 80%”. Further, the “half-life of active metabolites relative to tetrabenazine” value in series [4] is given as “increased half-life”.

In series [5], `[2H]C([2H])([2H])Oc1cc2c(cc1OC([2H])([2H])[2H])C1CC(=O)C(CC(C)C)CN1CC2` (stereo not shown) [micro-milled] displayed a D10 of 1.08 μm, a D50 of 3.31 μm and a D90 of 7.05 μm.

Turning to `[2H]C([2H])([2H])Oc1cc2c(cc1OC([2H])([2H])[2H])C1CC(=O)C(CC(C)C)CN1CC2` (stereo not shown) [nano-milled], in series [5], the D10 was 0.07 μm, the D50 is 0.14 μm and the D90 is on record as 0.34 μm.

(Values after US20230364075A1, “[…] DOSAGE FORMS COMPRISING DEUTETRABENAZINE” (AUSPEX PHARMACEUTICALS, INC., priority 2020, published 2023).)
